According to PMC12720098, “Prolintane analogs as hybrid monoamine transporter ligands: Structural determinants and species differences” (The Journal of Biological Chemistry, 2025):
Like-named read-outs stand apart in the source and are kept apart here.

What was measured:
Format in all cases: cell-based
[1] = target: T1, hSERT (Homo sapiens, UniProt P31645); assay: Uptake inhibition assay ([3H]5-HT) in transfected HEK293 cells
T1 construct: expressed in transfected cells
Procedure: (§1) HEK293 cells stably expressing human monoamine transporters hSERT, hDAT or hNET were seeded into poly-D-lysine (PDL) coated 96-well plates with a density of approximately 36,000 cells per well 1 day prior to experiments. A day after seeding, the cell medium was replaced with 200 μl Krebs-HEPES-buffer (KHB; 120 mM NaCl, 3 mM KCl, 2 mM CaCl2·2H2O, 2 mM MgCl2·6H2O, 20 mM D-glucose, pH = 7.3). The test drugs were initially dissolved in Milli-Q H2O or dimethyl sulfoxide (DMSO) at a concentration of 10 to 100 mM. Then, cells were treated with the respective concentration of the test drug diluted in KHB for 5 min as a pre-incubation step. Subsequently, in the uptake step, the solution was replaced with 50 μl/well diluted drug solution and tritiated substrate (hDAT: 0.1 μM [^3H]DA; hNET: 0.02 μM [^3H]MPP^+; hSERT: 0.1 μM [^3H]5-HT) for 1 min (hDAT, hSERT) or 3 min (hNET). After incubation, cells were immediately washed with 200 μl KHB to stop uptake. Uptake was indirectly measured by quantifying beta emission with liquid scintillation counting (Wallac 1450 MicroBeta TriLux Liquid Scintillation Counter & Lumi; GMI). Therefore, 200 μl Ultima Gold XR scintillation cocktail (PerkinElmer, MA, USA) was added to each well.
(§2) Half-maximal inhibitory concentrations (IC50) were obtained from fitting a sigmoidal dose–response ( Y=Bottom+Top−Bottom/1+10^((LogIC50−X)·HillSlope) ) in GraphPad Prism 10.3.1 (GraphPad Software Inc.). Uptake inhibition data were evaluated by one-way ANOVA followed by Tukey's multiple comparisons test. Release data were analyzed using a two-way ANOVA (batch release) or a mixed-effects model with Geisser-Greenhouse correction (time-dependent traces) employing Šidák correction for comparing differences between compounds with or without the addition of monensin.

[2] = target: T2, hNET (Homo sapiens, UniProt P23975); assay: Uptake inhibition assay ([3H]MPP+) in transfected HEK293 cells
T2 construct: expressed in transfected cells
T2 sequence (P23975 whole entry): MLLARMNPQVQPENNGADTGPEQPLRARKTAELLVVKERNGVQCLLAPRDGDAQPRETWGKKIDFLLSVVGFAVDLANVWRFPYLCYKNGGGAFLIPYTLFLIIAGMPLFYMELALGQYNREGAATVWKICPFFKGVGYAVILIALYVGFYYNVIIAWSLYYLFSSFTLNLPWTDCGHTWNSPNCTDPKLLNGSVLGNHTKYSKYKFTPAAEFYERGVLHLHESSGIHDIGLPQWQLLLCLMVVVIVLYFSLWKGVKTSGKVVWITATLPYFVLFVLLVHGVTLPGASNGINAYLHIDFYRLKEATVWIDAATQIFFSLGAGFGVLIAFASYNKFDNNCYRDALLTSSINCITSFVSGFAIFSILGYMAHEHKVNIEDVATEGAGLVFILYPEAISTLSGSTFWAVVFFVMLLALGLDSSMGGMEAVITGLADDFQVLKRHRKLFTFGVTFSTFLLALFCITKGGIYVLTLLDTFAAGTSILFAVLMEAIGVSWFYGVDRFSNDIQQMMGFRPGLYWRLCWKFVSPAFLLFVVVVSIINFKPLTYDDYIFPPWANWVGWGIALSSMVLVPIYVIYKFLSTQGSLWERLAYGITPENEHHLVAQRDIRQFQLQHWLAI
Procedure: as §1, §2

[3] = target: T3, hDAT (Homo sapiens, UniProt Q01959); assay: Batch release assay ([3H]MPP+) in transfected HEK293 cells; conditions: % efflux of total uptake, compounds approximately at IC50 concentration
T3 construct: expressed in transfected cells
T3 sequence (Q01959 whole entry): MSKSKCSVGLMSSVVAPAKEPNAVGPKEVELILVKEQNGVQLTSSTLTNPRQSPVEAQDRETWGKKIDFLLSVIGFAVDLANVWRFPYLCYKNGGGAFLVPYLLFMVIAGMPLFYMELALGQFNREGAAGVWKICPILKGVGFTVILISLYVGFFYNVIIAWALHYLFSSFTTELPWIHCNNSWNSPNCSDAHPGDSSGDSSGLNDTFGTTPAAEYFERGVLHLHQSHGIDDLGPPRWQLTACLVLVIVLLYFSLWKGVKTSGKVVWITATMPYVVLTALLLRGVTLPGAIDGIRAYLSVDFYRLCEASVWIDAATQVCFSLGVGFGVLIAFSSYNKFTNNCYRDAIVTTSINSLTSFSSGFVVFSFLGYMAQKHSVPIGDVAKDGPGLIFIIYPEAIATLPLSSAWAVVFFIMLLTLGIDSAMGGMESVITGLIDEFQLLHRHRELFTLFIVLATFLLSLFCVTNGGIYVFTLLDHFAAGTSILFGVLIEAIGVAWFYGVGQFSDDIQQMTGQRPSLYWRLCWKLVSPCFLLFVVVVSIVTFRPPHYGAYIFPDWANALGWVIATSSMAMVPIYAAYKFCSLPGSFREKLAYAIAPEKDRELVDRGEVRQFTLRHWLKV
Procedure: (§3) Batch release assays were performed as described previously ([44]). In brief, HEK293 cells stably expressing monoamine transporters were seeded similar to the procedure used for uptake inhibition assays. A day after seeding cells were pre-loaded with 50 μl/well 0.015 μM [^3H]MPP^+ (hDAT, hNET), or 0.08 μM [^3H]5-HT (hSERT) for 20 min at 37 °C. Then cells were washed four times for 3 to 4 min each and further incubated with KHB or KHB + monensin. After 10 min of incubation, two (screening) to four (full traces; hSERT) 2 min incubations were performed to establish a baseline release without substance. […] Each fraction was transferred to an empty well in the 96-well plate. For screening, a known inhibitor (hDAT, hNET: 50 μM GBR12909) and releaser (hDAT, hNET: 10 μM S-(+)-amphetamine) were used as controls. Ultima Gold XR scintillation cocktail was added to the remaining cells, and each well contained a release fraction. The counted radioactivity in the respective fraction was expressed as a percentage of total radioactivity at the start of the fraction.
as §2

[4] = target: T2, hNET; assay: as above; conditions: % efflux of total uptake, compounds approximately at IC50 concentration
Procedure: as §3, §2

[5] = target: T1, hSERT; conditions: batch release, % efflux of total uptake, compounds approximately at IC50 concentration
Procedure: as §3, §2

[6] = target: T1, hSERT; conditions: for hSERT efflux ± Mon, mean diff: superfusion; for Mean diff, hSERT efflux ± Mon (Šídák's multiple comparisons test): drug alone vs drug + monensin (Mon)
Procedure: A day prior to the experiment, HEK293 cells stably expressing hSERT or rat SERT (rSERT) were seeded at a density of 100,000 cells per channel into 6 channel flow ibidi slides (Gräfelfing, Germany). On the day of the experiments, cells were preloaded with 0.1 μM [^3H]5-HT at 37 °C, 5% CO2 for 20 min. Subsequently, the slides were transferred to the superfusion apparatus ([59]). Cells were then washed with KHB for 15 min under a constant flow of 0.5 ml/min. Fractions were collected every 2 min in 8 ml vials containing 2 ml scintillation cocktail. Collection began with three baseline fractions using KHB, followed by four additional basal release fractions with KHB, either with or without 10 μM monensin. […] To assess residual radioactivity within the cells, they were lysed with 1% sodium dodecyl sulfate (SDS), and three final fractions were obtained. The measured tritiated substrate in each fraction was expressed as a percentage of the initial tritiated substrate present at the start of that fraction.
as §2

[7] = Row 1 (2 min fraction 1, baseline KHB)
[8] = Row 2 (2 min fraction 2, baseline KHB)
[9] = Row 3 (2 min fraction 3, baseline KHB)
[10] = Row 4 (fraction 4, KHB with or without 10 μM monensin)
[11] = Row 5 (fraction 5, KHB with or without 10 μM monensin)
[12] = Row 6 (fraction 6, KHB with or without 10 μM monensin)
[13] = Row 7 (fraction 7, KHB with or without 10 μM monensin)
[14] = Row 8 (fraction 8, compound at IC50 concentration)
[15] = Row 9 (fraction 9, compound at IC50 concentration)
[16] = Row 10 (fraction 10, compound at IC50 concentration)
[17] = Row 11 (fraction 11, compound at IC50 concentration)
[18] = Row 12 (fraction 12, compound at IC50 concentration)

T1 sequence (P31645 whole entry): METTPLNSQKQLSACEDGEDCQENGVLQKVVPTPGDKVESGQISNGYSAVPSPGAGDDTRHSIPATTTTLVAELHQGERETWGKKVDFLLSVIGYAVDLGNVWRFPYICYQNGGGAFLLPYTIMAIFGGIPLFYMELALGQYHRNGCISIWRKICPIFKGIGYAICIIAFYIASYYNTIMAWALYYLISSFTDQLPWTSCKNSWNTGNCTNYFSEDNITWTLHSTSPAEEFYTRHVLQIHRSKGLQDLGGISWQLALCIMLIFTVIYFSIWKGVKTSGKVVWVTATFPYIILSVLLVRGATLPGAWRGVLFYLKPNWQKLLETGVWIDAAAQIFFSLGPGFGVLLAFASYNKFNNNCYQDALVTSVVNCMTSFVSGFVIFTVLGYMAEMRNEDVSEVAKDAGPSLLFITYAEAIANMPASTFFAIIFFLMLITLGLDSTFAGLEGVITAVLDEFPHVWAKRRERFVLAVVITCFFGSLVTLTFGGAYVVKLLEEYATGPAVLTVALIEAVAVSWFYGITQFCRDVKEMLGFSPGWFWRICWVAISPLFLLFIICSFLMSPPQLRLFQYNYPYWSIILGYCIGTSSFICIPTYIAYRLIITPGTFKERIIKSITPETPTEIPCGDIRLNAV

Row | SMILES | IC50 [1] | IC50 [2] | hDAT-mediated efflux, predicted (LS) mean diff, No mon - Mon [3] | hNET-mediated efflux, predicted (LS) mean diff, No mon - Mon [4] | hSERT-mediated efflux, predicted (LS) mean diff, No mon - Mon [5] | hSERT efflux ± Mon, mean diff [6, 7] | hSERT efflux ± Mon, mean diff [6, 8] | hSERT efflux ± Mon, mean diff [6, 9] | Mean diff, hSERT efflux ± Mon (Šídák's multiple comparisons test) ([6]; Row 1 (time fraction)) | Mean diff, hSERT efflux ± Mon (Šídák's multiple comparisons test) ([6]; Row 2 (time fraction)) | Mean diff, hSERT efflux ± Mon (Šídák's multiple comparisons test) ([6]; Row 3 (time fraction)) | Mean diff, hSERT efflux ± Mon (Šídák's multiple comparisons test) ([6]; Row 4 (time fraction)) | Mean diff, hSERT efflux ± Mon (Šídák's multiple comparisons test) ([6]; Row 5 (time fraction)) | Mean diff, hSERT efflux ± Mon (Šídák's multiple comparisons test) ([6]; Row 6 (time fraction)) | Mean diff, hSERT efflux ± Mon (Šídák's multiple comparisons test) ([6]; Row 7 (time fraction)) | Mean diff, hSERT efflux ± Mon (Šídák's multiple comparisons test) ([6]; Row 8 (time fraction)) | Mean diff, hSERT efflux ± Mon (Šídák's multiple comparisons test) ([6]; Row 9 (time fraction)) | Mean diff, hSERT efflux ± Mon (Šídák's multiple comparisons test) ([6]; Row 10 (time fraction)) | Mean diff, hSERT efflux ± Mon (Šídák's multiple comparisons test) ([6]; Row 11 (time fraction)) | Mean diff, hSERT efflux ± Mon (Šídák's multiple comparisons test) ([6]; Row 12 (time fraction)) | further results
1 | CCCC(Cc1ccccc1C)N1CCCC1 (stereo not drawn) [2-Methylprolintane, 1-[1-(2-methylphenyl)pentan-2-yl]pyrrolidine] | 4250 ± 1780 nM | 119 ± 49 nM | -0.04333 | -0.3417 | -4.459 | 0.1289 | 0.1185 | 0.1694 |  |  |  |  |  |  |  |  |  |  |  |  | hSERT efflux ± Mon, mean diff [6, 10]: 0.04832; hSERT efflux ± Mon, mean diff [6, 11]: -0.1068; hSERT efflux ± Mon, mean diff [6, 12]: -0.2079; hSERT efflux ± Mon, mean diff [6, 13]: -0.2202; hSERT efflux ± Mon, mean diff [6, 14]: -5.467; hSERT efflux ± Mon, mean diff [6, 15]: -7.92; hSERT efflux ± Mon, mean diff [6, 16]: -7.744; hSERT efflux ± Mon, mean diff [6, 17]: -7.355; hSERT efflux ± Mon, mean diff [6, 18]: -7.467
2 | CCCC(Cc1cccc(F)c1)N1CCCC1 (stereo not drawn) [3-Fluoroprolintane, 1-[1-(3-fluorophenyl)pentan-2-yl]pyrrolidine] | 13500 ± 1840 nM | 35 ± 11 nM | 0.0325 | 0.3678 | -5.404 |  |  |  | 0,003889 | -0,003000 | 0,02067 | -0,01133 | -0,1369 | -0,2296 | -0,2910 | -4,827 | -7,510 | -7,391 | -7,140 | -7,011 | 
3 | CCCC(Cc1ccccc1)N1CCCC1 (stereo not drawn) [Prolintane, 1-(1-phenylpentan-2-yl)pyrrolidine] | 28600 ± 4010 nM | 59 ± 7 nM | 0.1383 | -0.3446 | -7.218 | 0.02682 | 0.1025 | 0.1806 |  |  |  |  |  |  |  |  |  |  |  |  | IC50 at hSERT, fold weaker than at hDAT and hNET ([1]; HEK293 cells): more than 500 fold; hSERT efflux ± Mon, mean diff [6, 10]: 0.1203; hSERT efflux ± Mon, mean diff [6, 11]: 0.07151; hSERT efflux ± Mon, mean diff [6, 12]: -0.1392; hSERT efflux ± Mon, mean diff [6, 13]: -0.1744; hSERT efflux ± Mon, mean diff [6, 14]: -5.479; hSERT efflux ± Mon, mean diff [6, 15]: -6.902; hSERT efflux ± Mon, mean diff [6, 16]: -6.703; hSERT efflux ± Mon, mean diff [6, 17]: -6.503; hSERT efflux ± Mon, mean diff [6, 18]: -6.083
4 | CCCC(Cc1ccc(C)cc1)N1CCCC1 (stereo not drawn) [4-Methylprolintane, 1-[1-(4-methylphenyl)pentan-2-yl]pyrrolidine] | 2560 ± 515 nM | 72 ± 14 nM | -0.8967 | -0.3451 | -4.314 |  |  |  | -0,002444 | 0,005667 | -0,04278 | -0,1390 | -0,3006 | -0,3681 | -0,4242 | -4,103 | -5,748 | -5,723 | -5,744 | -5,949 | inhibitory potency at hSERT compared to pyrovalerone, fold greater ([1]; pyrovalerone value ref 53): 10 fold
5 | CCCC(Cc1cccc(C)c1)N1CCCC1 (stereo not drawn) [3-Methylprolintane, 1-[1-(3-methylphenyl)pentan-2-yl]pyrrolidine] | 2950 ± 541 nM | 139 ± 33 nM | -0.702 | -0.8634 | -5.6 |  |  |  | 0.05456 | 0.01844 | 0.02833 | 0.07733 | -0.1496 | -0.229 | -0.329 | -4.546 | -6.038 | -6.018 | -5.904 | -5.776 | 
